In patent US9447078B2, “Substituted heterocyclic compounds for disease treatment” (Acucela Inc., priority 2012, dated 2016):

Biological target: T1, isomerase (Mus musculus, UniProt Q91ZQ5)
T1 construct: from tissue; host or cells: eyes of living CD-1 (and Balb/c) mice, endogenous protein
T1 sequence (Q91ZQ5 1-533): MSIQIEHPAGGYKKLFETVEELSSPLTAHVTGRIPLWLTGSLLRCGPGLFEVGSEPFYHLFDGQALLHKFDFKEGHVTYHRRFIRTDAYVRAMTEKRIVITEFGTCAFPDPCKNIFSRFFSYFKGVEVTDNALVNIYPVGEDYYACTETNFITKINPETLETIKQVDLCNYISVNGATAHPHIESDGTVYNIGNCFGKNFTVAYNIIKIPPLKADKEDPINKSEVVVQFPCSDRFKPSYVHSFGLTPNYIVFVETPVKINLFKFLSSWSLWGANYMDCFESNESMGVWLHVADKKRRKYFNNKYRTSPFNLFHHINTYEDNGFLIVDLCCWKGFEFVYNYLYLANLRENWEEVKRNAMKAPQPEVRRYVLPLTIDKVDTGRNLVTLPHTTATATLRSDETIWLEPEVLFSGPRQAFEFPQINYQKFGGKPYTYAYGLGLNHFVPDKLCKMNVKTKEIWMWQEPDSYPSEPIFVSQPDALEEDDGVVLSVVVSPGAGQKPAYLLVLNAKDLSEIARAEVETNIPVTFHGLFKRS
Assay: In vivo murine isomerase assay (recovery of 11-cis-retinal after photobleaching)
Conditions: po, mice, oral gavage
Experimental: The capability of compounds described herein to inhibit isomerase was determined by an in vivo murine isomerase assay. Brief exposure of the eye to intense light (“photobleaching” of the visual pigment or simply “bleaching”) is known to photo-isomerize almost all 11-cis-retinal in the retina. The recovery of 11-cis-retinal after bleaching was used to estimate the activity of isomerase in vivo. Delayed recovery, as represented by lower 11-cis-retinal oxime levels, indicates inhibition of isomerization reaction. Procedures were performed essentially as described by Golczak et al., Proc. Natl. Acad. Sci. USA 102:8162-67 (2005). See also Deigner et al., Science, 244: 968-71 (1989); Gollapalli et al., Biochim Biophys Acta. 1651: 93-101 (2003); Parish, et al., Proc. Natl. Acad. Sci. USA, 14609-13 (1998); Radu, et al., Proc Natl Acad Sci USA 101: 5928-33 (2004).
Six-week old dark-adapted CD-1 (albino) male mice were orally gavaged with compound (0.03-3 mg/kg) dissolved in 100 μl corn oil containing 10% ethanol (five animals per group). After 2-24 hours in the dark, the mice were exposed to photobleaching of 5,000 lux of white light for 10 minutes. The mice were allowed to recover 2 hours in the dark. The animals were then sacrificed by carbon dioxide inhalation. Retinoids were extracted from the eye and the regeneration of 11-cis-retinal was assessed at various time intervals.
All steps were performed in darkness with minimal redlight illumination (low light darkroom lights and red-filtered flashlights for spot illumination as needed) (see, e.g., Maeda et al., J. Neurochem 85:944-956, 2003; Van Hooser et al., J Biol Chem 277:19173-82, 2002). After the mice were sacrificed, the eyes were immediately removed and placed in liquid nitrogen for storage.
The eyes were placed in 500 μL of bis-tris propane buffer (10 mM, pH ˜7.3) and 20 μL of 0.8M hydroxile amine (pH˜7.3). The eyes were cut up into small pieces with small iris scissors and then thoroughly homogenized at 30000 rpm with a mechanical homogenizer (Polytron PT 1300 D) in the tube until no visible tissue remained. 500 μL of methanol and 500 μL of heptane were added to each tube. The tubes were attached to a vortexer so that the contents were mixed thoroughly for 15 minutes in room temperature. The organic phase was separated from the aqueous phase by centrifugation for 10 min at 13K rpm, 4° C. 240 μL of the solution from the top layer (organic phase) was removed and transferred to clean 300 μl glass inserts in HPLC vials using glass pipette and the vials were crimped shut tightly.
The samples were analyzed on an Agilent 1100 HPLC system with normal phase column: SILICA (Beckman Coutlier, dp 5 μm, […]). […] Loading volume for each sample was 100 μl; detection wavelength is 360 nm. The area under the curve for 11-cis retinal oxime was calculated by Agilent Chemstation software and was recorded manually. Data processing was performed using Prizm software.
Positive control mice (no compound administered) were sacrificed fully dark-adapted and the eye retinoids analyzed. Light (bleached) control mice (no compound administered) were sacrificed and retinoids isolated and analyzed immediately after light treatment.
A time course study was performed to determine the isomerase inhibitory activity of the test compound. Male Balb/c mice (4/group) receive test compound orally by gavage. The animals were then “photo-bleached” (5000 Lux white light for 10 minutes) at 2, 4, 8, 16 and 24 hours after dosing, and returned to darkness to allow recovery of the 11-cis-retinal content of the eyes. Mice were sacrificed 2 hours after bleaching, eyes were enucleated, and retinoid content was analyzed by HPLC.
Recovery control mice (vehicle-only treated) were light-treated and left to recover for 2 hours in the dark before sacrifice and analysis. Light control mice (vehicle only treated) were sacrificed for analysis immediately after photo-bleaching.

CCCC(CCC)COc1cccc([C@H](O)CCN)n1 [Example 19, (R)-3-Amino-1-(6-((2-propylpentyl)oxy)pyridin-2-yl)propan-1-ol]
inhibition at 1 mg/kg (Time 4 hour): 98.2 ± 2.3% | inhibition at 1 mg/kg (Time 8 hour): 90.7 ± 3.3%

NCC[C@@H](O)c1cccc(OCC2CCCCC2)n1 [Example 6, (R)-3-Amino-1-(6-(cyclohexylmethoxy)pyridin-2-yl)propan-1-ol]
inhibition at 1 mg/kg (Time 2 hour): 68.9 ± 6.5% | inhibition at 1 mg/kg (Time 4 hour): 37.7 ± 14.9% | inhibition at 3 mg/kg (Time 2 hour): 93.2 ± 0.9% | inhibition at 3 mg/kg (Time 4 hour): 85.5 ± 2.9% | inhibition at 3 mg/kg (Time 6 hour): 62.3 ± 3.8% | inhibition at 3 mg/kg (Time 8 hour): 30.8 ± 9.9% | inhibition at 3 mg/kg (Time 16 hour): 0% | inhibition at 3 mg/kg (Time 24 hour): 0%

NCCC(O)c1cccc(CCC2CCCCC2)n1 (centres unmarked) [Example 4, 3-Amino-1-(6-(2-cyclohexylethyl)pyridin-2-yl)propan-1-ol]
inhibition at 1 mg/kg (Time 2 hour): 29.3 ± 4.3%

NCCC(O)c1ccc(OCC2CCCCC2)s1 (centres unmarked) [Example 1, 3-Amino-1-(5-(cyclohexylmethoxy)thiophen-2-yl)propan-1-ol]
inhibition at 1 mg/kg (Time 2 hour): 0% | inhibition at 1 mg/kg (Time 4 hour): 0%

NCCC(O)c1cc(OCC2CCCCC2)ccn1 (centres unmarked) [Example 12, 3-Amino-1-(4-(cyclohexylmethoxy)pyridin-2-yl)propan-1-ol]
inhibition at 1 mg/kg (Time 2 hour): 0%

NCC[C@@H](O)c1ccc(OCC2CCCCC2)s1 [Example 5, (R)-3-Amino-1-(5-(cyclohexylmethoxy)thiophen-2-yl)propan-1-ol]
inhibition at 1 mg/kg (Time 2 hour): 0%

NCCC(O)c1cccc(/C=C/C2CCCCC2)n1 (centres unmarked) [Example 3, (E)-3-Amino-1-(6-(2-cyclohexylvinyl)pyridin-2-yl)propan-1-ol]
inhibition at 1 mg/kg (Time 2 hour): 0%

NCCC(O)c1cc(C#CC2(O)CCCCC2)cs1 (centres unmarked) [Example 9, 1-((5-(3-Amino-1-hydroxypropyl)thiophen-3-yl)ethynyl)cyclohexanol]
inhibition at 1 mg/kg (Time 2 hour): 8.6 ± 4.2%
